For one data set, the system named is HBV. Nature of the data set: Cell based anti-HBV activity test, HBV DNA in HepG2.2.15 cell supernatant by qPCR. Particulars: read-out: EC50. How it is done: (§1) 8.1. Dilution of the compounds: the initial concentration of each compound in the in vitro anti-HBV activity test was 1 μM, with 3-fold serial dilution to 8 concentrations; the initial concentration of each compound in the cytotoxicity test was 100 μM, with 3-fold serial dilution to 8 concentrations; DMSO was used for the dilution of the compound mother liquor. The initial concentrations of the reference compound TDF for the anti-HBV activity test in vitro and the cytotoxicity test were all set at 0.2 μM, with 3-fold serial dilution to 8 concentrations.
8.2. Anti-HBV activity test in vitro: the HepG2.2.15 cells were plated in the 96-well plate (4×10^4 cells/well), and cultured overnight at 37° C. in 5% CO2. On second day, fresh culture solutions containing compounds of different concentrations were added to the culture wells. See Table 2 for the compound distribution. On 5th day, the used culture solutions in the culture wells were sucked and discarded, and fresh culture solutions containing compounds of different concentrations were added. On 8th day, the supernatant in the culture wells was collected for the extraction of HBV DNA in the supernatant. qPCR test was used to detect the concentration of HBV DNA content in the HepG2.2.15 supernatant.
8.4. Data analysis and calculation of the inhibition percentage and relative cell viability: The inhibition percentage was calculated using the following formula: % Inh.=[(HBV quantity of DMSO control−HBV quantity of sample)/HBV quantity of DMSO control]×100%
9.1 Drugs: the dilution method and concentrations of compound 3, the reference compound (CN201380030061.6, and the compound shown in claim 36 (abbreviation: compound 7), and the isomer thereof) were the same as those in example 1.
(§2) 9.2 Test method: the test was carried out according to the procedure in example 1.

The next data set in a line: in vitro. The format is cell-based. The note with it: human, HepG2.2.15 cells. The method, then:
The concentration of HBV DNA in the HepG2.2.15 cell supernatant was detected through the real-time fluorescence quantitative PCR (qPCR) method to determine the anti-HBV activity of the compound in the HepG2.2.15 cells, and the effect of the testing compounds to the HepG2.2.15 cell activity was detected through Cell-titer Blue.
as §1
8.3. Treatment of the cells in the cell viability test: the HepG2.2.15 cells were plated in the 96-well plate (4×10^4 cells/well), and cultured overnight at 37° C. in 5% CO2. On 2nd day, fresh culture solutions containing compounds of different concentrations were added to the culture wells. See Table 3 for the compound distribution. On 5th day, the used culture solutions in the culture wells were sucked and discarded, and fresh culture solutions containing compounds of different concentrations were added. On 8th day, Cell-titer Blue agent was added to each well, and the microplate reader was used to detect the fluorescence value of each well.
The cell viability percentage was calculated using the following formula: % cell viability=(fluorescence of sample−fluorescence of medium control)/(fluorescence of DMSO control−fluorescence of medium control)[…] 100%
as §2

Data set [1] in a line: Stability in the human liver S9. The format is in vitro ADME. How it is done:
(§3) The following stability test were carried out according to the prior art, and the data of the stability test shown in the table were the residue percentages after the test compounds were incubated for different period of time under the test condition.

Data set [2] in a line: Stability in the simulated intestinal fluid. Format: in vitro ADME. The note with it: 10 μM. How it is done: as §3
A further data set is described as follows: in vivo. On the set-up: species or system ICR mice. The note with it: mouse, 50 mg/kg. The method, then: 12 ICR mice (male, body weight 30±5 g, purchased from the Vital River animal center) were randomly divided into 4 groups, 3 for each group, fasted for 12 h before drug administration, with freely drinking during the fasting. […] The dose of the Tenofovir prodrug was 50 mg/kg, and the administration quantity was 10 mL/kg. The sample collection protocols: after administration by gastric gavage, each 0.5 mL of blood was taken from the orbit at 15 min, 30 min, 1 h, and 3 h; the mice were sacrificed, and the liver tissues were taken, washed cleanly, and weighed; normal saline was added to the liver with a proportion of 1:1, homogenized, and stored in the refrigerator at −40° C. for test. Treatment method for the plasma samples: 100 μL of the mouse plasma was taken and placed in a 1.5 mL plastic EP tube, 100 μL solution of internal standard (200 ng/ml theophylline) solution was added, 600 μL acetonitrile was added, vortex shaking for 2 min, centrifuged for 3 min (12500 rpm), the supernatant was taken, purged with nitrogen to dryness, and dissolved again with 100 μL of mobile phase (water:methanol=95:5), and the injection volume was 10 μL. Treatment method for the tissue samples: 200 μL of the mouse tissue samples were taken and placed in a 1.5 mL plastic EP tube, 100 μL solution of internal standard (200 ng/ml theophylline) solution was added, 600 μL acetonitrile was added, vortex shaking for 2 min, centrifuged for 3 min (12500 rpm), the supernatant was taken, purged with nitrogen to dryness, and dissolved again with 100 μL of mobile phase (water:methanol=95:5), and the injection volume was 20μL.

A short description of data set [3]: Stability in the human blood. The format is in vitro ADME. The note with it: 2 μM. The method, then:
as §3

The nature of data set [4]: Stability in the simulated gastric fluid. The format is in vitro ADME. Particulars: 20 μM. The method, then: as §3
The mark [5] stands for this setting: Hepatitis B virus, HepG2.2.15, HepG2.2.15 cells, HBV DNA in supernatant on 8th day, Table 3.
[6] abbreviates: Cell-titer Blue on 8th day, Table 3.
[7] abbreviates: HepG2.2.15 cells, HBV DNA in supernatant on 8th day, Table 3.

pEC50: −log10 of the molar value. Like-named read-outs stand apart in the source and are kept apart here.

As to `CC(C)OC(=O)CN[P@@](=O)(CO[C@H](C)Cn1cnc2c(N)ncnc21)OCc1ccccc1` (single isomer, unassigned) [Compound 1a], the pEC50 (commonly the EC50 on a negative log10 scale, so that one unit is a factor of ten) in the data set on HBV (setting [5]) is less than 6.00. The CC50 (commonly the concentration at which the toxic effect on the cells reaches its halfway point) in the data set “in vitro” (setting [6]) was more than 100 µM.

On to `CC(C)OC(=O)CN[P@](=O)(CO[C@H](C)Cn1cnc2c(N)ncnc21)OCc1ccccc1` (single isomer, unassigned) [Compound 1b], for which the values for the pEC50 in the data set on HBV (setting [7]) and in the data set on HBV (setting [5]) were 6.54 and 6.00 to 6.70, respectively. The compound further came in with a CC50 in “in vitro” (setting [6]) of more than 100 µM.

On to `C[C@H](Cn1cnc2c(N)ncnc21)OC[P@](=O)(NCC(=O)OCc1ccccc1)OCc1ccccc1` (single isomer, unassigned) [Compound 5a], for which the pEC50 in the data set with HBV (setting [7]) is 6.67; in the data set with HBV (setting [5]), 6.00 to 6.70. The compound further yielded a CC50 in “in vitro” (setting [6]) of more than 100 µM.

In turn, `C[C@H](Cn1cnc2c(N)ncnc21)OC[P@@](=O)(NCC(=O)OCc1ccccc1)OCc1ccccc1` (single isomer, unassigned) [Compound 5b] yielded a CC50 in “in vitro” (setting [6]) of more than 100 µM.

As for `CCOc1ccc2ccc(=O)oc2c1` [7-Ethoxycumarin], in data set [1] (human liver S9, 1 μM), the “CLlint(s9)” value is 8.4 µL/min/mg, the half-life (usually how long it takes for the measured level to halve) at 1 μM amounted to 82.2 min and the “Remaining (T = 60 min)” value came out at 60%. Also, in data set [1] (human liver S9, 1 μM, scaled per kg), the “CLlint(s9)” value was 1.78 mL/h/kg.

Turning to `O=c1ccc2ccc(O)cc2o1` [7-Hydroxycoumarin], in data set [1] (human liver S9, 1 μM), the “Remaining (T = 60 min)” value is 4%. In addition, the half-life in data set [1] (human, s9) worked out at 6.6 min.

With `O=C(O)CCCc1ccc(N(CCCl)CCCl)cc1` [Chlorambucil], in data set [2] (0 min), the “% 0 min (residue percentage)” value is 100%. For the same compound, the “% 60 min (residue percentage)” value in data set [2] (60 min) is 29.36%. Further, the “% 120 min (residue percentage)” value in data set [2] (120 min) is 3.11%. The “% 360 min (residue percentage)” value in data set [2] (360 min) is 0.00%. Also, the “% 1440 min (residue percentage)” value in data set [2] (1440 min) is listed as 0.00%.

Turning to `COC(=O)CN[P@@](=O)(CO[C@H](C)Cn1cnc2c(N)ncnc21)OCc1ccccc1` [Compound 2a], the CC50 in “in vitro” (setting [6]) is more than 100 µM.

With `COC(=O)CN[P@](=O)(CO[C@H](C)Cn1cnc2c(N)ncnc21)OCc1ccccc1` [Compound 2b], the pEC50 with HBV (setting [5]) was less than 6.00. The compound also registered a CC50 in the data set “in vitro” (setting [6]) of more than 100 µM.

Turning to `CC(C)OC(=O)[C@H](C)NP(=O)(CO[C@H](C)Cn1cnc2c(N)ncnc21)OCc1ccccc1` (some centres unmarked) [Compound 3], the selectivity ratio at 3 h in the data set “in vivo” (male, ICR) came to 3.61. The concentration at 3 h in the data set “in vivo” (male, ICR, Cliver tissue) is 375 nM; in “in vivo” (male, ICR, Cplasma), 104 nM.

Take `Cc1ccccc1CO[P@](=O)(CO[C@H](C)Cn1cnc2c(N)ncnc21)N[C@@H](C)C(=O)OC(C)C` [Compound 7a]: in the data set with HBV (Hepatitis B virus, HepG2.2.15, HepG2.2.15 cells, comparative test, Table 4), the pEC50 was less than 6.00. For the same compound, the CC50 in the data set “in vitro” (comparative test, Table 4) is more than 100 µM.

Regarding `CC1CC(OC(=O)C(O)c2ccccc2)CC(C)(C)N1C` (centres unmarked) [Eucatropine], the “% 0 min (residue percentage)” value in data set [3] (0 min) amounted to 100%. In data set [3] (10 min), the “% 10 min (residue percentage)” value is recorded as 54.4%. Also, the “% 30 min (residue percentage)” value in data set [3] (30 min) stood at 37.0%. Moreover, the “% 60 min (residue percentage)” value in data set [3] (60 min) was determined as 24.4%. The “% 120 min (residue percentage)” value in data set [3] (120 min) turned out to be 10.2%.

On to `COc1ccc2[nH]c([S+]([O-])Cc3ncc(C)c(OC)c3C)nc2c1` (centres unmarked) [Omeprazole], for which, in data set [4] (0 min), the “% 0 min (residue percentage)” value is 100%. Further, the “% 60 min (residue percentage)” value in data set [4] (60 min) is listed as 24.34%. Besides, the “% 120 min (residue percentage)” value in data set [4] (120 min) was 9.41%. Also, in data set [4] (360 min), the “% 360 min (residue percentage)” value is listed as 1.58%. In data set [4] (1440 min), the “% 1440 min (residue percentage)” value is listed as 0.31%.

Turning to `C[C@H](Cn1cnc2c(N)ncnc21)OCP(=O)(O)O` [TFV, Tenofovir], in the data set “in vivo”, the Cliver tissue is 67.251 nmol/mL, the Cplasma is recorded as 0.075 nmol/mL and the “Liver tissue selectivity (Cliver tissue/Cplasma)” value is reported as 896.

The record behind these values is patent publication US10233202B2, “Tenofovir monobenzyl ester phosphamide prodrug, preparation method and use thereof” (JIANGSU TASLY DIYI PHARMACEUTICAL CO., LTD., priority 2015, dated 2019).
